Laboratory results taken from patent US8202910B2 (Sequella, Inc., priority 2006, dated 2012).
Values after ≈ are worked out from the molar mass of the structure shown. “Also recorded” adds a separate entry of the source. Read-outs that look alike come from different tables or passages of the source.

Columns and labels:
[1] = system: monkey kidney cells (Vero); experiment: In vitro toxicity, Vero cells; format: cell-based; settings: Primates
Procedure: Twenty six compounds (including 37, 59 and 109) were tested in an in vitro model of toxicity using monkey kidney cells (Vero) and human cervical cancer cells (HeLa) using methods well known to those skilled in the art. The data from this toxicity testing and the MIC data were used to calculate a selectivity index (SI), the ratio of IC50:MIC (Table 15). Selectivity Indexes were ranging from 1.76 to 16.67.

[2] = format: in vitro ADME; settings: 6 h
Procedure: Initially, analytical methods for determination of the compounds had been developed that allowed to carry out all the PK experiments, sec FIG. 29. Here is a brief description of the experiment: (1) plasma spiked with tested compounds and 10 uL of Terfenadine or plasma samples (200 uL) added; (2) ACN (2 mL) added to precipitate protein and spin at 2,500 rpm; (3) evaporate supernatant to dryness; (4) add 200 uL of the diluting solvent: methanol (with 0.1% of trifluoroacetic acid): ammonium acetate (80/20); (5) vortex, spin, and use supernatant; (6) run LC/MS/MS on Sciex API 3000.
Biostability studies of the compounds in plasma were carried out using concentrations 1 and 15 mg/ml. The compounds were incubated for 1, 2, 3 & 6 hr at 37° C. (Table 18).

M. tuberculosis = experiment: Minimum Bactericidal Concentration (MBC); format: cell-based; settings: Mycobacterium tuberculosis
[3] = system: sigma receptor (sigma non-selective); experiment: CEREP receptor binding, sigma; settings: tested at 10 μM
Source text: (§1) In vitro testing for safety pharmacology and early ADMET (Absorption, Distribution, Metabolism, Excretion, Toxicity) studies of compound 109 were contracted out to CEREP (15318 NE 95th Street, Redmond, Wash., 98052, USA www.cerep.com) under a service agreement and included evaluation of inhibitory binding to a panel of 27 standard receptors and three transporters (See FIG. 60 (Table 31) and FIG. 61 (Table 32)) which included: adenosine receptors (A1 and A2A), adrenergic receptors (alpha 1, alpha 2, beta 1), angiotensin II receptor (AT1), benzodiazapene receptor (BZD), bradykinin receptor (B2), cholecystokinin receptor (CCK1), dopamine receptors (D1, D2S), endothelin receptor (ETA), GABA receptor (GABA), glutamate receptor (NMDA), histamine receptor (H1 central), melanocortin receptor (MC4), muscarinic receptor (M, non-selective), neurokinin receptor (NK1), neuropeptide Y receptor (Y), nicotinic receptor (neuronal, alpha-BGTX-insensitive), opiate receptor (non-selective opiate), orphanin receptor (ORL1), phencyclidine receptor (PCP), serotonin receptor (5-HT), sigma receptor (sigma non-selective), steroid receptor (glucocorticoid receptor, GR), and NE, DA, and 5-HT transporters.
(§2) The specific ligand binding to the receptors is defined as the difference between the total binding and the nonspecific binding determined in the presence of an excess of unlabelled ligand.

[4] = target: T1, Norepinephrine NE transporter (Homo sapiens, UniProt P23975); experiment: CEREP transporter binding, NE; settings: tested at 10 μM; read-out: inhibition of control specific binding
T1 construct: CEREP (contract testing)
T1 sequence (P23975 whole entry): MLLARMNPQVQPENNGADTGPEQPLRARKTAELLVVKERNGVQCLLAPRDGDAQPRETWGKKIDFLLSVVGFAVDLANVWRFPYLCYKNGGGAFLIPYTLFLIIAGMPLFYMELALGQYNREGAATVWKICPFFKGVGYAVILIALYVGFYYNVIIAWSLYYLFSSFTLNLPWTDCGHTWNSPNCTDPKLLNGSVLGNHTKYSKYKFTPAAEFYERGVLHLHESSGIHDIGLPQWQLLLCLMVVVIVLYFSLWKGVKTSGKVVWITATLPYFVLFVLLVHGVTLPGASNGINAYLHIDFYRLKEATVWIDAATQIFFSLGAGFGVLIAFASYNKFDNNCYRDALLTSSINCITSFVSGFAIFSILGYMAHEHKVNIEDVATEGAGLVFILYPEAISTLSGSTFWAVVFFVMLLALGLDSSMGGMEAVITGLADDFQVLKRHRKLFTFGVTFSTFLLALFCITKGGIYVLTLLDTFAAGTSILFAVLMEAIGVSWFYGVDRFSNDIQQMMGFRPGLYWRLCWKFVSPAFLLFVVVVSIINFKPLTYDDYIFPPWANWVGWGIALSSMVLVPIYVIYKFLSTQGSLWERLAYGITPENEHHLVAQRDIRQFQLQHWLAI
Source text: as §1, §2

M. avium complex (MAC) = experiment: Spectrum of activity MIC, MOTT, agar proportion method; format: cell-based; settings: Mycobacterium avium; three isolates
[5] = system: M. chelonae group (M. chelonae and M. abscessus); experiment: Spectrum of activity MIC, rapid-grower, broth microdilution (NCCLS M24-A); format: cell-based; settings: Mycobacteroides chelonae; three strains tested
[6] = system: RIF^R M. tuberculosis isolate 3185; experiment: microbe, parasite or virus in culture; format: cell-based
M. tuberculosis H37Rv = experiment: Two-drug combination growth inhibition, BACTEC 460, x/y quotient; format: cell-based; settings: for interaction of SQ109 with isoniazid: both drugs at 0.5 MIC
[7] = system: M. tuberculosis H37Rv (Pasteur); experiment: Rapid in vivo model of TB, body weight of infected mice; set-up: species or system C3H female mice
human CYP2D6 = human CYP2D6 (Homo sapiens, UniProt P10635); experiment: Metabolism by CYP2D6; format: in vitro ADME
Sequence of human CYP2D6 (P10635 whole entry): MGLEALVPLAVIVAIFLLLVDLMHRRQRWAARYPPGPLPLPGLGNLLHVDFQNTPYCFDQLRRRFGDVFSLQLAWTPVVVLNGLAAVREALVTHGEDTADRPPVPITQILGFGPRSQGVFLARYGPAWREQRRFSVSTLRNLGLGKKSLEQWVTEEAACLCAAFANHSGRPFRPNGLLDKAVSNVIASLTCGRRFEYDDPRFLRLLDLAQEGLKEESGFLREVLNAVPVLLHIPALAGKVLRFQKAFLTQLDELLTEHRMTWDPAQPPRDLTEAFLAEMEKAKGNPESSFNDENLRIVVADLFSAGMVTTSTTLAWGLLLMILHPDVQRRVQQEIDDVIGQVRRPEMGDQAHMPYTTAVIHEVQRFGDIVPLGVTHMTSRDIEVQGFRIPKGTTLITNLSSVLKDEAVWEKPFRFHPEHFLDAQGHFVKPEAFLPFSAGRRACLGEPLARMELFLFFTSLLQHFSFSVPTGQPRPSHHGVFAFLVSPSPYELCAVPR
Source text: Two of the groups contained oxidized metabolites. […] Based on the finding that SQ109 was metabolized rapidly by CYP, it is possible that its antimycobacterial activity may come from one of its metabolites. It is conceivable that SQ109 is a prodrug and requires activation by mycobacterial CYP. We speculate that when SQ109 is used in combination with rifampicin, the latter induces certain CYP activity within the Mycobacteria. Elevated CYP activity activates the SQ109 prodrug more efficiently, resulting in an apparent synergistic activity of the two drugs.

[8] = sub-MIC concentrations, listed as SQ109

CC(C)=CCC/C(C)=C/CNCCNC1C2CC3CC(C2)CC1C3 (stereo not shown) [Compound 109, N-Geranyl-N′-(2-adamanthyl)ethane-1,2-diamine]
IC50 [1]: 26 µM
Biostability in plasma (% ↓) ([2]; dog): 40% ↓
Biostability in plasma (% ↓) ([2]; human): 30% ↓
Biostability in plasma (% ↓) ([2]; mouse): stable
Biostability in plasma (% ↓) ([2]; rat): stable
MBC (M. tuberculosis): 0.313 µg/mL (≈ 0.947 µM)
inhibition of control specific binding [3]: 106%
inhibition at 10 µM [4]: 87%
MIC (M. avium complex (MAC)): 8 to 32 µg/mL (≈ 24.2 to 96.8 µM)
MIC [5]: 16 µg/mL (≈ 48.4 µM)
MIC ([6]; Mycobacterium tuberculosis, read-out: MIC (BACTEC)): 0.32 µg/mL (≈ 0.968 µM)
MIC (BACTEC) ([6]; isolate 3185): 0.32 µg/mL (≈ 0.968 µM)
growth inhibition of inoculum (M. tuberculosis H37Rv; 0.5 MIC SQ109 in combination with 0.1 MIC RIF): greater than 99%
Synergy quotient (x/y) (M. tuberculosis H37Rv; SQ109 1/10 MIC + INH ½ MIC): 1
Synergy quotient (x/y) (M. tuberculosis H37Rv; SQ109 1/10 MIC + MOX ½ MIC): 1
Synergy quotient (x/y) (M. tuberculosis H37Rv; SQ109 1/10 MIC + MOX ⅕ MIC): 1
Synergy quotient (x/y) (M. tuberculosis H37Rv; SQ109 1/10 MIC + RIF 1/10 MIC): 1
Synergy quotient (x/y) (M. tuberculosis H37Rv; SQ109 1/10 MIC + RIF 1/20 MIC): 1
Synergy quotient (x/y) (M. tuberculosis H37Rv; SQ109 1/10 MIC + RIF ¼ MIC): 1
Synergy quotient (x/y) (M. tuberculosis H37Rv; SQ109 1/10 MIC + RIF ½ MIC): 0.16
Synergy quotient (x/y) (M. tuberculosis H37Rv; SQ109 1/10 MIC + SM ½ MIC): 0.98
Synergy quotient (x/y) (M. tuberculosis H37Rv; SQ109 1/20 MIC + INH ½ MIC): 1
Synergy quotient (x/y) (M. tuberculosis H37Rv; SQ109 1/20 MIC + MOX ½ MIC): 1
Synergy quotient (x/y) (M. tuberculosis H37Rv; SQ109 1/20 MIC + MOX ⅕ MIC): 1
Synergy quotient (x/y) (M. tuberculosis H37Rv; SQ109 1/20 MIC + RIF 1/10 MIC): 1
Synergy quotient (x/y) (M. tuberculosis H37Rv; SQ109 1/20 MIC + RIF 1/20 MIC): 1
Synergy quotient (x/y) (M. tuberculosis H37Rv; SQ109 1/20 MIC + RIF ¼ MIC): 1
Synergy quotient (x/y) (M. tuberculosis H37Rv; SQ109 1/20 MIC + RIF ½ MIC): 0.32
Synergy quotient (x/y) (M. tuberculosis H37Rv; SQ109 1/20 MIC + SM ½ MIC): 1
Synergy quotient (x/y) (M. tuberculosis H37Rv; SQ109 ½ MIC + INH ½ MIC): 0.45
Synergy quotient (x/y) (M. tuberculosis H37Rv; SQ109 ½ MIC + MOX ½ MIC): 0.45
Synergy quotient (x/y) (M. tuberculosis H37Rv; SQ109 ½ MIC + MOX ⅕ MIC): 0.51
Synergy quotient (x/y) (M. tuberculosis H37Rv; SQ109 ½ MIC + RIF 1/10 MIC): 0.29
Synergy quotient (x/y) (M. tuberculosis H37Rv; SQ109 ½ MIC + RIF 1/20 MIC): 0.61
Synergy quotient (x/y) (M. tuberculosis H37Rv; SQ109 ½ MIC + RIF ¼ MIC): 0.23
Synergy quotient (x/y) (M. tuberculosis H37Rv; SQ109 ½ MIC + RIF ½ MIC): 0.12
Synergy quotient (x/y) (M. tuberculosis H37Rv; SQ109 ½ MIC + SM ½ MIC): 0.57
Synergy quotient (x/y) (M. tuberculosis H37Rv; SQ109 ⅕ MIC + INH ½ MIC): 0.83
Synergy quotient (x/y) (M. tuberculosis H37Rv; SQ109 ⅕ MIC + MOX ½ MIC): 0.96
Synergy quotient (x/y) (M. tuberculosis H37Rv; SQ109 ⅕ MIC + MOX ⅕ MIC): 1
Synergy quotient (x/y) (M. tuberculosis H37Rv; SQ109 ⅕ MIC + RIF 1/10 MIC): 1
Synergy quotient (x/y) (M. tuberculosis H37Rv; SQ109 ⅕ MIC + RIF 1/20 MIC): 1
Synergy quotient (x/y) (M. tuberculosis H37Rv; SQ109 ⅕ MIC + RIF ½ MIC): 0.4
Synergy quotient (x/y) (M. tuberculosis H37Rv; SQ109 ⅕ MIC + SM ½ MIC): 0.74
interaction of SQ109 with isoniazid (M. tuberculosis H37Rv; listed as SQ 109): strong synergistic activity
interaction of SQ109 with isoniazid (M. tuberculosis H37Rv; listed as SQ109): synergy
interaction of SQ109 with pyrazinamide (M. tuberculosis H37Rv; sub-MIC concentrations, PZA Test Medium, listed as SQ109): neither synergy nor additive effects; also recorded: did not show any positive interaction
interaction of SQ109 with rifampicin (M. tuberculosis H37Rv; sub-MIC concentrations, listed as SQ 109): strong synergistic activity
interaction of SQ109 with ethambutol (M. tuberculosis H37Rv; [8]): neither synergy nor additive effects; also recorded: did not show any positive interaction; also recorded: no interaction
interaction of SQ109 with rifampicin (M. tuberculosis H37Rv; [8]): marked synergy
interaction of SQ109 with streptomycin (M. tuberculosis H37Rv; [8]): additive effect; also recorded: only additive interaction
average body weight ([7]; SQ109 10 mg/kg + RIF 2 mg/kg orally, 6 mice, by the 3 wk, uninfected control 24.5 g, untreated 17 g): 24.3 grams
body weight of infected mice ([7]; SQ109 in combination with PZA (50 mg/kg)): slight improvement
body weight of infected mice ([7]; compound 109 (10 mg/kg) in combination with Rifampicin (2 mg/kg)): comparable to non-infected controls
body weight of infected mice ([7]; compound 109 (10 mg/kg) in combination with Rifampicin (2 mg/kg), listed as SQ109): fully prevented body weight loss
body weight of infected mice ([7]; compound 109 in combination with EMB (10 mg/kg)): closer to placebo treated controls
body weight of infected mice ([7]; compound 109 in combination with EMB (10 mg/kg), listed as SQ109): No effect
body weight of infected mice ([7]; compound 109 in combination with INH (1 mg/kg)): comparable to non-infected controls
body weight of infected mice ([7]; compound 109 in combination with INH (1 mg/kg), listed as SQ109): enhanced activity
body weight of infected mice ([7]; compound 109 in combination with Moxi (10 mg/kg)): closer to placebo treated controls
body weight of infected mice ([7]; compound 109 in combination with Moxi (10 mg/kg), listed as SQ109): antagonistic effect
average weight ([7]; single drug alone (SQ109 10 mg/kg; RIF 2 mg/kg), by the 3 wk): 21.3 g
body weight of infected mice ([7]; single drug alone (SQ109 10 mg/kg; Rifampin 2 mg/kg)): closer to placebo treated controls
metabolism by CYP (human CYP2D6): metabolized
